{
  "source": "patent EP4691487A1",
  "about": "“METHOD FOR INCREASING CONCENTRATION OF MACROMOLECULAR DRUG IN TUMOR TISSUE” (priority 2023, dated 2024)",
  "key": {"[1]": {"system": "human pancreatic cancer PC-07-0067 model", "test": "Anti-tumor efficacy in pancreatic cancer PC-07-0067 subcutaneous xenograft (PDX) model (Example 4)", "type": "in vivo, BALB/c nude mice", "conditions": "TRODELVY 3 mg/kg IV BIW", "description": "Establishment of PDX model: The human pancreatic cancer PC-07-0067 model was initially established from a surgically resected clinical sample, which was designated as P0 after being inoculated into nude mice. Inoculation of tumor tissue from P0 into the next generation of mice is referred to as P1, and so on for subsequent serial passages in nude mice. FP3 tumors were resuscitated from P2 generation tissue, and the next generation from FP3 was designated as FP4, and so on.\nTumor Inoculation: A 20-30 mm^3 PC-07-0067 FP5 tumor tissue piece was subcutaneously inoculated on the right flank of each mouse for tumor growth. The mice were randomized for dosing when the mean tumor volume reached approximately 100-150 mm^3.\nExperimental indicator: The experimental indicator is to examine whether tumor growth is inhibited, delayed or cured. Tumor diameter is measured with a vernier caliper twice a week. The formula for calculating tumor volume is: V = 0.5a × b^2, a and b represent the long diameter and short diameter of the tumor, respectively.\nThe anti-tumor efficacy of a compound is evaluated using the TGI(%) or tumor proliferation rate (T/C)(%). TGI(%) reflects the rate of tumor growth inhibition.\nTumor proliferation rate T/C (%): The calculation formula is as follows: T/C(%) = Ti/Vi × 100 %, wherein Vi is the mean tumor volume of the solvent control group at a certain measurement, and Ti is the mean tumor volume of the dosing group at the same measurement."}, "PC-07-006 model": {"system": "PC-07-006 model", "test": "Anti-human IgG secondary antibody staining of TRODELVY bound to tumor cells in vivo (Example 5)", "design": "species or system BALB/c nude mice", "conditions": "tissue samples from Example 4", "description": "The experimental method was the same as in Example 3. The experimental tissue samples were from Example 4. The anti-human IgG secondary antibody was able to recognize the binding of TRODELVY to tumor cells in vivo. […] Example 6: In vivo pharmacological study of the tumor infiltration level of test article, fluorescein Cy5.5-labeled Hanquyou( ? ) antibody (H-Cy5.5), in a subcutaneous xenograft tumor model of human gastric cancer NCI-N87 cells in Balb/c-nude mice after administration of IN10018"}},
  "data": [
    {"sequence": "TRODELVY", "values": [
      {"measurement": "T/C", "setting": "[1]; after 14 days of dosing, T/C = Ti/Vi, IN10018 12.5 mg/kg PO QD", "value": 27.95, "unit": "%"},
      {"measurement": "TGI", "setting": "[1]; after 14 days of dosing, IN10018 12.5 mg/kg PO QD", "value": 78.91, "unit": "%"},
      {"measurement": "mean tumor volumes", "setting": "[1]; day 14, IN10018 12.5 mg/kg PO QD (tartrate salt weighed)", "value": 423, "unit": "mm^3"},
      {"measurement": "antibody-tumor cell binding", "setting": "PC-07-006 model", "value": "significant antibody-tumor cell binding"}
    ]}
  ]
}
